From PubChem BioAssay (NCI)
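Step 1: Grow cells in 96-well plates. Step 2: Expose to compound for 48 hours at 5 concentrations. Step 3: Interpolate endpoints linearly; if unreached, use highest concentration. TGI: total growth inhibition.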

Assays:
Assay in all cases: NCI-60 cell line screen, 48 h
[1] = test system: SF-539 CNS
[2] = test system: T-47D breast
[3] = test system: DU-145 prostate
[4] = test system: HCT-15 colon
[5] = test system: MCF7 breast
[6] = test system: LOX IMVI melanoma
[7] = test system: IGROV1 ovarian
[8] = test system: A549 NSCLC
[9] = test system: NCI-H226 lung
[10] = test system: MDA-MB-231 breast
[11] = test system: COLO 205 colon
[12] = test system: SF-295 CNS
[13] = test system: MDA-N
[14] = test system: OVCAR-3 ovarian
[15] = test system: HS 578T breast
[16] = test system: NCI-H460 lung
[17] = test system: CAKI-1 renal
[18] = test system: ACHN renal
[19] = test system: KM12 colon
[20] = test system: RPMI-8226 leukemia
[21] = test system: HCC-2998 colon
[22] = test system: MDA-MB-435
[23] = test system: SK-MEL-2 melanoma
[24] = test system: NCI/ADR-RES ovarian
[25] = test system: MALME-3M melanoma
[26] = test system: SK-MEL-28 melanoma
[27] = test system: OVCAR-8 ovarian
[28] = test system: HL-60(TB) leukemia
[29] = test system: 786-0 renal
[30] = test system: NCI-H23 lung
[31] = test system: CCRF-CEM leukemia
[32] = test system: MOLT-4 leukemia
[33] = test system: UO-31 renal
[34] = test system: HOP-62 NSCLC
[35] = test system: NCI-H522 lung
[36] = test system: HT29 colon
[37] = test system: SK-OV-3 ovarian
[38] = test system: M14 melanoma
[39] = test system: U251 CNS
[40] = test system: SR leukemia
[41] = test system: PC-3 prostate
[42] = test system: HOP-92 NSCLC
[43] = test system: A498 renal
[44] = test system: K-562 leukemia
[45] = test system: OVCAR-5 ovarian
[46] = test system: RXF 393 renal
[47] = test system: SW-620 colon
[48] = test system: UACC-62 melanoma
[49] = test system: SF-268 CNS
[50] = test system: OVCAR-4 ovarian
[51] = test system: UACC-257 melanoma
[52] = test system: TK-10 renal
[53] = test system: EKVX NSCLC
[54] = test system: SNB-75 CNS
[55] = test system: SNB-19 CNS
[56] = test system: SN12C renal
[57] = test system: HCT-116 colon
[58] = test system: SK-MEL-5 melanoma
[59] = test system: BT-549 breast

**Q.** With `O=C1c2ccccc2CC12Cc1ccc3c(c1C2)CCC3` (stereo not drawn) as the molecule, how does the TGI [1] read?
**A.** 90.2 µM

**Q.** What about the TGI [2] of the same molecule?
**A.** > 100 µM

**Q.** What about the TGI [3] of the same molecule?
**A.** > 100 µM

**Q.** And the TGI [4]?
**A.** 31.6 µM

**Q.** And the TGI [5]?
**A.** 39.6 µM

**Q.** And the TGI [6]?
**A.** 24.8 µM

**Q.** And the TGI [7]?
**A.** > 100 µM

**Q.** And the TGI [8]?
**A.** 64.2 µM

**Q.** What about the TGI [9] of the same molecule?
**A.** 64.7 µM

**Q.** And the TGI [10]?
**A.** 47.1 µM

**Q.** And the TGI [11]?
**A.** 59.3 µM

**Q.** What about the TGI [12] of the same molecule?
**A.** 76.5 µM

**Q.** And the TGI [13]?
**A.** 44.4 µM

**Q.** And the TGI [14]?
**A.** 41.7 µM

**Q.** What about the TGI [15] of the same molecule?
**A.** 83.4 µM

**Q.** What about the TGI [16] of the same molecule?
**A.** 79.2 µM

**Q.** And the TGI [17]?
**A.** > 100 µM

**Q.** What about the TGI [18] of the same molecule?
**A.** 61 µM

**Q.** And the TGI [19]?
**A.** 73.9 µM

**Q.** What about the TGI [20] of the same molecule?
**A.** 59.6 µM

**Q.** What about the TGI [21] of the same molecule?
**A.** 54.7 µM

**Q.** What about the TGI [22] of the same molecule?
**A.** 33.7 µM

**Q.** What about the TGI [23] of the same molecule?
**A.** 30.2 µM

**Q.** And the TGI [24]?
**A.** 28.4 µM

**Q.** What about the TGI [25] of the same molecule?
**A.** 30.3 µM

**Q.** What about the TGI [26] of the same molecule?
**A.** > 100 µM

**Q.** And the TGI [27]?
**A.** > 100 µM

**Q.** What about the TGI [28] of the same molecule?
**A.** 42.1 µM

**Q.** And the TGI [29]?
**A.** 51.7 µM

**Q.** And the TGI [30]?
**A.** > 100 µM

**Q.** And the TGI [31]?
**A.** 49.3 µM

**Q.** What about the TGI [32] of the same molecule?
**A.** > 100 µM

**Q.** And the TGI [33]?
**A.** > 100 µM

**Q.** What about the TGI [34] of the same molecule?
**A.** 69.5 µM

**Q.** What about the TGI [35] of the same molecule?
**A.** 25.2 µM

**Q.** What about the TGI [36] of the same molecule?
**A.** 29.2 µM

**Q.** And the TGI [37]?
**A.** > 100 µM

**Q.** And the TGI [38]?
**A.** 49.1 µM

**Q.** And the TGI [39]?
**A.** 38 µM

**Q.** What about the TGI [40] of the same molecule?
**A.** 44.1 µM

**Q.** And the TGI [41]?
**A.** > 100 µM

**Q.** What about the TGI [42] of the same molecule?
**A.** 34.9 µM

**Q.** What about the TGI [43] of the same molecule?
**A.** > 100 µM

**Q.** What about the TGI [44] of the same molecule?
**A.** > 100 µM

**Q.** What about the TGI [45] of the same molecule?
**A.** 42.2 µM

**Q.** What about the TGI [46] of the same molecule?
**A.** 38.7 µM

**Q.** What about the TGI [47] of the same molecule?
**A.** > 100 µM

**Q.** And the TGI [48]?
**A.** 60.5 µM

**Q.** And the TGI [49]?
**A.** > 100 µM

**Q.** And the TGI [50]?
**A.** > 100 µM

**Q.** What about the TGI [51] of the same molecule?
**A.** 30.2 µM

**Q.** What about the TGI [52] of the same molecule?
**A.** 26.7 µM

**Q.** What about the TGI [53] of the same molecule?
**A.** 47.7 µM

**Q.** And the TGI [54]?
**A.** 97.9 µM

**Q.** And the TGI [55]?
**A.** > 100 µM

**Q.** What about the TGI [56] of the same molecule?
**A.** > 100 µM

**Q.** And the TGI [57]?
**A.** 40.1 µM

**Q.** What about the TGI [58] of the same molecule?
**A.** 28.8 µM

**Q.** And the TGI [59]?
**A.** > 100 µM

**Q.** `O=C(Nc1cccc(-c2cn3ccccc3n2)c1)c1ccncc1` was tested. Which TGI [1] did it give?
**A.** > 100 µM

**Q.** What about the TGI [2] of the same molecule?
**A.** 79.6 µM

**Q.** What about the TGI [3] of the same molecule?
**A.** > 100 µM

**Q.** And the TGI [4]?
**A.** > 100 µM

**Q.** What about the TGI [5] of the same molecule?
**A.** > 100 µM

**Q.** What about the TGI [6] of the same molecule?
**A.** > 100 µM

**Q.** What about the TGI [7] of the same molecule?
**A.** > 100 µM

**Q.** What about the TGI [8] of the same molecule?
**A.** > 100 µM

**Q.** What about the TGI [9] of the same molecule?
**A.** > 100 µM

**Q.** And the TGI [10]?
**A.** 98.7 µM

**Q.** What about the TGI [11] of the same molecule?
**A.** 88.8 µM

**Q.** What about the TGI [12] of the same molecule?
**A.** > 100 µM

**Q.** And the TGI [13]?
**A.** > 100 µM

**Q.** And the TGI [14]?
**A.** > 100 µM

**Q.** And the TGI [15]?
**A.** > 100 µM

**Q.** What about the TGI [16] of the same molecule?
**A.** 39 µM

**Q.** And the TGI [17]?
**A.** > 100 µM

**Q.** And the TGI [18]?
**A.** > 100 µM

**Q.** What about the TGI [19] of the same molecule?
**A.** > 100 µM

**Q.** And the TGI [20]?
**A.** 39.7 µM

**Q.** And the TGI [21]?
**A.** > 100 µM

**Q.** What about the TGI [22] of the same molecule?
**A.** > 100 µM

**Q.** And the TGI [23]?
**A.** 46.5 µM

**Q.** What about the TGI [24] of the same molecule?
**A.** 65.1 µM

**Q.** What about the TGI [25] of the same molecule?
**A.** > 100 µM

**Q.** What about the TGI [26] of the same molecule?
**A.** > 100 µM

**Q.** What about the TGI [27] of the same molecule?
**A.** > 100 µM

**Q.** What about the TGI [28] of the same molecule?
**A.** 45.8 µM

**Q.** What about the TGI [29] of the same molecule?
**A.** > 100 µM

**Q.** And the TGI [30]?
**A.** 65 µM

**Q.** What about the TGI [31] of the same molecule?
**A.** 82.5 µM

**Q.** What about the TGI [32] of the same molecule?
**A.** 52.6 µM

**Q.** What about the TGI [33] of the same molecule?
**A.** > 100 µM

**Q.** And the TGI [34]?
**A.** > 100 µM

**Q.** What about the TGI [35] of the same molecule?
**A.** 72.4 µM

**Q.** What about the TGI [36] of the same molecule?
**A.** > 100 µM

**Q.** What about the TGI [37] of the same molecule?
**A.** > 100 µM

**Q.** And the TGI [38]?
**A.** > 100 µM

**Q.** And the TGI [39]?
**A.** > 100 µM

**Q.** And the TGI [40]?
**A.** 71.7 µM

**Q.** And the TGI [41]?
**A.** > 100 µM

**Q.** What about the TGI [42] of the same molecule?
**A.** > 100 µM

**Q.** And the TGI [43]?
**A.** > 100 µM

**Q.** What about the TGI [44] of the same molecule?
**A.** 61 µM

**Q.** What about the TGI [45] of the same molecule?
**A.** > 100 µM

**Q.** What about the TGI [46] of the same molecule?
**A.** > 100 µM

**Q.** What about the TGI [47] of the same molecule?
**A.** > 100 µM

**Q.** What about the TGI [48] of the same molecule?
**A.** 42.2 µM

**Q.** What about the TGI [49] of the same molecule?
**A.** > 100 µM

**Q.** What about the TGI [50] of the same molecule?
**A.** > 100 µM

**Q.** What about the TGI [51] of the same molecule?
**A.** 73.5 µM

**Q.** And the TGI [52]?
**A.** > 100 µM

**Q.** What about the TGI [53] of the same molecule?
**A.** > 100 µM

**Q.** And the TGI [54]?
**A.** > 100 µM

**Q.** And the TGI [55]?
**A.** > 100 µM

**Q.** What about the TGI [56] of the same molecule?
**A.** > 100 µM

**Q.** And the TGI [57]?
**A.** > 100 µM

**Q.** What about the TGI [58] of the same molecule?
**A.** 71.4 µM

**Q.** What about the TGI [59] of the same molecule?
**A.** 72 µM
